Measured values as given in patent US20150111852A1, “1-Di(sec-butyl)-phosphinoyl-pentane (dapa-2-5) as a topical agent” (priority 2013, published 2015).

How the values were obtained:
rat skin = test: Irritant activity on shaved abdominal rat skin; format: in vivo; set-up: key to Redness after 20 μL applied topically to skin (scale of 0 to +++): the presence of redness (irritation) was graded on a scale of 0 to +++; the presence of redness (irritation) was graded on a scale of 0 to +++; the presence of redness (irritation) was graded on a scale of 0 to +++; the presence of redness (irritation) was graded on a scale of 0 to +++; details: for Redness after 20 μL applied topically to skin (scale of 0 to +++): pure compound, 1 hour; for skin irritancy in words: undiluted form
Description: This hypothesis was tested by applying 20 μL of the pure compound onto the shaved abdominal skin of a pentobarbital-anesthetized rat. The test substance was enclosed in a circle of ˜1 cm diameter with a ring of cream. The test substance was applied with a micropipette, and after 1 hour the area was wiped with a cotton pad and the presence of redness (irritation) was graded on a scale of 0 to +++.

Strains TA 98 and TA100 = test: Ames test; format: cell-based; details: Strains TA 98 and TA100, with and without liver activation
Description: Preliminary toxicological studies were conducted on DAPA-2-5 and DAPA-2-7.

[1] = Repeated-dose toxicity in male rats (organ weights, histology); format: in vivo, rat
Description: DAPA-2-7, dissolved in 3% ethanol/97% 1,2-propanediol, or vehicle alone, was administered subcutaneously to male rats (N=8 per group) at 30 mg/kg body weight daily for 7 days, and on the 8th day, the animals were euthanized with sodium pentobarbital and the major organs (body, heart, liver, lungs, kidney, testes, brain) were removed and weighed. Heart tissues (ventricle and heart valves) and liver samples were stained with hematoxylin and eosin and the histology examined.
In a large scale trial, DAPA-2-5 was administered via drinking water to male rats for 40 days. The DAPA-2-5 was mixed with condensed milk [8.5%] at 0.5 mg/mL and liquid consumption was monitored. The averaged intake in the treated group [N=12 rats] was 41 mg/kg body weight/day for 40 days. The vehicle alone group was N=11.

ASIC3 (acid-sensing) = target: T1, ASIC3 (acid-sensing) (Homo sapiens, UniProt Q9UHC3); test: Patch-clamp in transfected cells, ASIC3; format: cell-based; details: DAPA-2-5 at 5 μM; positive control amiloride
T1 construct: expressed in transfected cells
T1 sequence (Q9UHC3 1-531): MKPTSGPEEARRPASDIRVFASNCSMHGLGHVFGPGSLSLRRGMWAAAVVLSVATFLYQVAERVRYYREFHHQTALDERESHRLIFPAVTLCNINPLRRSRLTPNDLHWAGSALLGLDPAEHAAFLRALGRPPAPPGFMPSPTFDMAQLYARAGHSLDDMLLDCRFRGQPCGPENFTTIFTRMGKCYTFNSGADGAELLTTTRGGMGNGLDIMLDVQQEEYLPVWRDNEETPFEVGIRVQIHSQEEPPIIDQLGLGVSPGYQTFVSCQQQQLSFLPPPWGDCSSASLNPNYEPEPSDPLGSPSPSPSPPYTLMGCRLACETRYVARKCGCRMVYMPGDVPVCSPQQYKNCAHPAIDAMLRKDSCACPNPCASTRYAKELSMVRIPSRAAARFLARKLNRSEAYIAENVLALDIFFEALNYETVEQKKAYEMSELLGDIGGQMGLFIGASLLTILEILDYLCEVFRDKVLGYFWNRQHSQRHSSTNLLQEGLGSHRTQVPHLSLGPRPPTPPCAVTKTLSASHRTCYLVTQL

[2] = tested on: citric acid-induced cough; test: Guinea pig cough model, citric acid mist; format: in vivo; details: 2 mg/mL in saline, 75 μL per animal, 1 M citric acid mist, 10 min observation period
Description: Male specific pathogen—free guinea pigs about one month of age, weighing 250 to 300 g, were obtained from the medical experimental animal center of Guang Dong Province, China, and housed in rooms maintained at 22±2° C. and 55±15% humidity with a 12-hr light cycle and 20 air changes per hr. The experimental procedures were approved by the Institutional Animal Care and Use Committee. Guinea pigs were placed in a transparent plastic 2 L plethysmography chamber equipped with a bias flow regulator that withdrew air at a rate of 2.5 L/min (Buxco, Wilmington, N.C., USA). […] The frequency was detected as a transient change in airflow in the chamber and the signal recorded via a pressure transducer and computer. Additionally, the audio-amplified count was also recorded electronically. Coughs were counted for the 10 min exposure period. The experiment was visually monitored by the investigator. The baseline frequency of coughing was recorded for all animals (N=20) and 7 days later, animals were anesthetized with diethyl ether. […] Ten min after injection, the guinea pigs were exposed to the citric acid mist and the number of coughs recorded.

[3] = tested on: throat, airway and chest discomfort; test: Case studies with DAPA-2-5 tablets in human subjects; format: in vivo; details: for precipitation of “ice cream headache” (Case Study 5): ODT-A 2 mg
[4] = male rats, 30 mg/kg subcutaneously daily for 7 days

CCCCCCP(=O)(C(C)CC)C(C)CC (stereo not drawn) [DAPA-2-6, 1-Di(sec-butyl) phosphinoyl-hexane]
Redness after 20 μL applied topically to skin (scale of 0 to +++) (rat skin): +
skin irritancy in words (rat skin): is a skin irritant

CCCCCP(=O)(C(C)CC)C(C)CC (stereo not drawn) [DAPA-2-5, 1-Di(sec-butyl)-phosphinoyl-pentane]
mutagenic in the Ames test (Strains TA 98 and TA100): Neither of these compounds was mutagenic
difference in organ weights or histology vs vehicle ([1]; male rats, via drinking water, averaged intake 41 mg/kg body weight/day for 40 days): no statistical difference
difference in organ weights or histology vs vehicle ([1]; rats, 20 mg/kg perioral by gavage for 7 days): no statistical difference
agonist or antagonist activity, ASIC3 (ASIC3 (acid-sensing)): No agonist or antagonist activities
Redness after 20 μL applied topically to skin (scale of 0 to +++) (rat skin): 0
skin irritancy in words (rat skin): minimal or no pro-inflammatory actions on the skin
cough frequency [2]: 6.7±1.6 coughs
effective in reducing throat discomfort (Case Study 7) ([3]; ODT-A 1.0 mg as needed, six women): 100%
hoarseness and loss of voice (Case Study 6) ([3]; ODT-A 1 mg, twenty trials): immediate relief from throat discomfort
choking and gagging in asthma (Case Study 4) ([3]; ODT-A 1 mg, two subjects): effective in controlling choking and gagging
cough in cough variant asthma (Case Study 4) ([3]; ODT-A 1.5 mg, two or three tablets at a time, after a week's trial): completely under control
precipitation of “ice cream headache” (Case Study 5) [3]: Neither of the ODT precipitated a headache response
relief of hoarseness (Case Study 1) ([3]; ODT-A, 1 to 1.5 mg, person, five occasions): fully effective in relieving their hoarseness
time to disappearance of chest discomfort (Case Study 8, second person) ([3]; four tablets with water): about 10 min
snoring (Case Study 9) ([3]; tablets 2 mg before sleep): stopped snoring
time to relief of chest discomfort (Case Study 8) ([3]; three tablets, each 1.5 mg): ≤ 5 min
hiccups (Case Study 5) ([3]; two DAPA-2-5 ODT): stopped within several min
throat discomfort from acid reflux (Case Study 5) ([3]; two DAPA-2-5 ODT): immediately controlled their throat discomfort from acid reflux
nasal congestion (Case Study 2) ([3]; two tablets of 1 mg or one of 1.5 mg, with viral cold): effective remedy

CCCCCCCP(=O)(C(C)CC)C(C)CC (stereo not drawn) [DAPA-2-7, 1-Di(sec-butyl) phosphinoyl-heptane]
mutagenic in the Ames test (Strains TA 98 and TA100): Neither of these compounds was mutagenic
differences in body or organ weights vs vehicle [1, 4]: no significant differences
heart and liver histology [1, 4]: normal
Redness after 20 μL applied topically to skin (scale of 0 to +++) (rat skin): ++
skin irritancy in words (rat skin): is a skin irritant
precipitation of “ice cream headache” (Case Study 5) [3]: Neither of the ODT precipitated a headache response
